Experimental data reported in US8821568B2, “Implant modified with non-hydroxylated vitamin D precursors” (Numat Biomedical S.L., priority 2008, dated 2014).
Entries after “also recorded” stand apart in the source; their conditions may differ.

What was measured:
Assay type in all cases: cell-based, mouse
[1] = tested on: MC3T3-E1 cells; test: ELISA of 25-D3 and 1,25-D3 released to the culture media, plastic wells; settings: TCP, 48 hours, 2×10^−3 to 20 nmols
Experimental: To test the effect of the different treatments onto the plastic wells, 96-well plates made of polystyrene were used and the treatments with 7-DHC performed directly onto them. Cells grown onto untreated TCP were added as a control for all the experiments. Cells were seeded at a density of 30,000 cells/cm^2 and they were maintained in α-MEM supplemented with 10% FCS and antibiotics. Culture media was collected after 48 hours, to test cytotoxicity and the production of the hydroxylated forms of vitamin D. Cells were harvested after 2 days of culture using Trizol reagent (Roche Diagnostics, Mannheim, Germany), to analyse early gene expression response of several osteoblast differentiation markers and enzymes involved in vitamin D synthesis using real-time RT-PCR.
25-D3 and 1,25-D3 released to the culture media after two days of treatment were analyzed by enzyme-linked immunosorbent assay (ELISA). Aliquots from the culture media were centrifuged at 1800 rpm for 5 minutes at 4° C. and supernatants were used for 25-D3 and 1,25-D3 determination following instructions described by the manufacturer (Immunodiagnostic Systems Ltd, Boldon, Tyne and Wear, UK).

[2] = tested on: MC3T3-E1 cells; test: LDH activity (cytotoxicity) of cells on treated tissue culture plastic wells; settings: TCP wells; after 24 hours; UV-treated (302 nm, 30 min); higher dose (20 nmols); compared to low control
Experimental: To treat tissue culture plastic (TCP) wells, 10 μl of each dilution treatment were left on the surfaces and were allowed to air-dry for 15 min in the sterile flow bench. For UV-irradiation, a UV lamp of 302 nm was used at an intensity of irradiation of 6 mW/cm^2 (UVP, Upland, Calif., USA) during 30 minutes. Treated surfaces were immediately used for cell culture experiments.
To test the effect of the different treatments onto the plastic wells, 96-well plates made of polystyrene were used and the treatments with 7-DHC performed directly onto them. Cells grown onto untreated TCP were added as a control for all the experiments. Cells were seeded at a density of 30,000 cells/cm^2 and they were maintained in α-MEM supplemented with 10% FCS and antibiotics. […]
Lactate dehydrogenase (LDH) activity in the culture media was used as an index of cell death. LDH activity was determined spectrophotometrically after 30 min incubation at 25° C. of 50 μl of culture and 50 μl of the reaction mixture by measuring the oxidation of NADH at 490 nm in the presence of piruvate following the manufacturer's protocol (Cytotoxicity Detection Kit (LDH), Roche Diagnostics, Mannheim, Germany). […]

[3] = tested on: MC3T3-E1 cells; test: Real-time RT-PCR of osteoblast differentiation markers, coated titanium implants; settings: Ti implants, 48 h
Experimental: To test the effect of the surface modification, 96-well plates were used. Ti disks were placed into the wells and treatments and UV-activation were performed over there. Cells grown onto untreated polystyrene tissue culture plastic (TCP) were added as a control for all the experiments. Cells were seeded at a density of 30,000 cells/cm^2 and they were maintained in α-MEM supplemented with 10% FCS and antibiotics. Culture media was collected after 48 hours, to test cytotoxicity and the production of the hydroxylated form of vitamin D, 25-D3. Cells were harvested after two days of culture using Trizol reagent (Roche Diagnostics, Mannheim, Germany), to analyze gene expression of several osteoblast differentiation markers and enzymes involved in vitamin D synthesis using real-time RT-PCR. On the other hand, MC3T3-E1 cells were harvested after 21 days to measure calcium content and ALP activity in the cell monolayer.
RNA was isolated from cells using a monophasic solution of phenol and guanidine thiocyanate (Trizol, Roche Diagnostics, Mannheim, Germany) according to the manufacturer's protocol. RNA was quantified at 260 nm using a Nanodrop spectrophotometer (NanoDrop Technologies, Wilmington, Del., USA).
Total RNA previously isolated was reverse-transcribed to cDNA using High Capacity RNA to cDNA kit (Applied Biosystems, Foster City, Calif.) according to the protocol of the supplier. The same amount of total RNA from each sample was converted into cDNA. Each cDNA was diluted ¼ and aliquots were stored at −20° C. until the PCR reactions were carried out.
Real-time RT-PCR was performed for two reference genes: 18S ribosomal RNA (18S rRNA), glyceraldehyde-3-phosphate dehydrogenase (GAPDH); and eleven target genes: alkaline phosphathase (ALP), Interleukin 6 (IL-6), Collagen (Coll-1), Osteocalcin (OC), Bone Morphogenetic Protein 2 (BMP-2), Osterix (Osx), Receptor activator of nuclear factor kappa-B ligand (RANKL), Osteoprogesterin (OPG) and genes involved in vitamin D synthesis such as Vitamin D3 25-hydroxylase (CYP27A1) and 25 hydroxyvitamin D3-1-alpha hydroxylase (CYP27B1). Real-time PCR were performed in the Lightcycler 480® (Roche Diagnostics, Germany). Each reaction contained 5 μl of LightCycler-FastStart DNA Master^PLUS SYBR Green I (Roche Diagnostics, Mannheim, Germany), 0.5 μM of the sense and antisense specific primers (Table 1) and 3 μl of the cDNA dilution in a final volume of 10 μl. The normal amplification program consisted of a preincubation step for denaturation of the template cDNA (10 min 95° C.), followed by 45 cycles consisting of a denaturation step (10 s 95° C.), an annealing step (10 s 60° C., except for ALP that was 10 s at 65° C., OSX with 10 s at 68° C.) and an extension step (10 s 72° C.). After each cycle, fluorescence was measured at 72° C. Every run included a negative control without cDNA template. To confirm amplification specificity, PCR products were subjected to a melting curve analysis on the LightCycler and subsequently 2% agarose/TAE gel electrophoresis, Tm and amplicon size, respectively.
To allow relative quantification after PCR, real-time efficiencies were calculated from the given slopes in the LightCycler 480 software (Roche Diagnostics, Mannheim, Germany) using serial dilutions. Relative quantification after PCR was calculated by normalizing target gene concentration in each sample by the concentration mean of the two reference genes in given sample using the Advanced relative quantification method provided by the LightCycler 480 analysis software.

`CC(C)CCC[C@@H](C)[C@H]1CC[C@H]2C3=CC=C4C[C@@H](O)CC[C@]4(C)[C@H]3CC[C@]12C` [7-DHC, 7-dehydrocholesterol] was tested, and the “Production of 25-D3 and 1,25-D3 (dose-response)” value ([1]; activated by UV irradiation) was “a dose-response was found”, the “Production of 25-D3 and 1,25-D3 (dose-response)” value ([1]; not UV-treated) was “no dose-response was detected” and the “Cytotoxicity (LDH activity in culture media)” value [2] was “toxic effect”. For the same molecule, the “RANKL mRNA expression” value ([3]; 2×10^−2 nmols and 0.2 nmols, UV 15 minutes vs UV-untreated) was “significant decrease”, the “RANKL mRNA levels” value ([3]; 10 minutes UV-exposed, compared to ethanol) was “statistical significant increase” and the “OPG mRNA levels” value ([3]; 30 min UV-exposed) was “decrease”. For the same molecule, the “RANKL mRNA levels” value ([3]; 30 minutes UV-exposed) was “significant decrease”, the “ALP mRNA levels” value ([3]; UV irradiated vs ethanol and UV-treated groups, significant at 30 minutes) was “higher ALP mRNA levels” and the “OC mRNA levels” value ([3]; UV-exposed for 15 min) was “tendency to increased OC mRNA levels”. For the same molecule, the RANKL gene expression ([3]; all UV-treated groups (2×10^−2, 0.2, 2 nmols; 15 minutes) compared to control) was “Statistical significances; also recorded: significantly reduced”, the “OSX mRNA levels” value ([3]; between all the groups, only significant at 10 minutes of UV exposure) was “very similar” and the “BMP-2 mRNA levels” value ([3]; when exposed to UV) was “No statistical differences”. For the same molecule, the “IL-6 mRNA levels” value ([3]; when exposed to UV) was “No statistical differences” and the “Collagen type-1 gene expression” value ([3]; with UV exposure time, significant at 15 and 30 minutes) was “trend to decrease”.
